Assay results published in patent publication US12472176B2, “Pharmaceutical compositions comprising (S)-4-(4-(4-(((2-(2,6-dioxopiperidin-3-yl)-1-oxoisoindolin-4-yl)oxy)methyl)benzyl)piperazin-1-yl)-3-fluorobenzonitrile and methods of using the same” (Celgene Corporation, priority 2020, dated 2025).

Tests used:
[1] = Binary drug-excipient compatibility study (open dish); assay type: physicochemical
Description: A binary drug-excipient compatibility study was conducted to identify suitable excipients for capsule formulation. Considering the low dose formulation where diluent constitutes majority of the composition, API to diluent ratio was 1:400; for other excipients, the ration was 1:50.
Drug substance and excipients were dispensed at predetermined ratios, mixed using a vortex mixer for 30 seconds, and then dispensed into required number of vials for stability study. These vials (open dish condition) were exposed to 50° C./0% RH and 50° C./75% RH conditions for 2 and 4 weeks respectively. The control samples were stored in a refrigerator at 5° C. Selective samples were tested for chemical degradants and loss of chiral purity (conversion of S-isomer to R-isomer) after 2-weeks.
The following are the major degradation pathways that could be shelf-life limiting: (1) hydrolysis; (2) oxidation; and (3) loss of chiral purity. The total chemical impurities and chiral impurity levels of the samples after stressing for 2-weeks and 4-weeks are compared with the control samples which are shown in FIG. 1A and FIG. 1B, respectively.

[2] = pKa and pHmax of the HBr salt; assay type: physicochemical
[3] = control sample, stored at 5° C.

chemical impurity level ([1]; 2-weeks exposure at 50° C./75% RH, open dish): 0.35%
chemical impurity level ([1]; 4-weeks exposure at 50° C./75% RH, open dish): 0.77%
chiral impurity ([1]; 4 weeks at 50° C./75% RH, open dish): 0.4%
chemical impurities [1, 3]: 0.2%
chiral impurity [1, 3]: 0.3%
change in chemical impurities or chiral impurity ([1]; dry condition (50° C.)): no significant change
pHmax [2]: 4.62
pKa [2]: 6.62
Structure (SMILES): Br.N#Cc1ccc(N2CCN(Cc3ccc(COc4cccc5c4CN([C@H]4CCC(=O)NC4=O)C5=O)cc3)CC2)c(F)c1 [Compound 1 HBr]
